Measured values taken from ChEMBL document CHEMBL5620379, “Discovery, SAR and mechanistic studies of quinazolinone-based acetamide derivatives in experimental visceral leishmaniasis” (Eur J Med Chem, 2023).
Activity calls are given as the source filed them. No cut-off for these calls is given here.

Tests used:
J774 [1] = assay: Cytotoxicity against mouse J774 cells at 12.5 uM incubated for 72 hrs by MTT assay relative to control; type: toxicity, cell-based; conditions: j774, 72 h
J774 [2] = assay: Cytotoxicity against mouse J774 cells at 50 uM incubated for 72 hrs by MTT assay relative to control; type: toxicity, cell-based; conditions: j774, 72 h
Leishmania donovani [3] = assay: Antileishmanial activity against Leishmania donovani promastigotes measured after 48 hrs by MTT assay; type: functional, organism-based
Leishmania donovani [4] = assay: Antileishmanial activity against Leishmania donovani amastigotes infected in J774 macrophage assessed as inhibition of parasite growth incubated for 48 hrs by luciferase assay; type: functional, organism-based; conditions: J774, 48 h
J774 [5] = assay: Cytotoxicity against mouse J774 macrophage incubated for 72 hrs by MTT assay; type: functional
[6] = Selectivity index, ratio of CC50 for mouse J774 macrophage to IC50 for Leishmania donovani amastigotes infected in J774 macrophage; type: toxicity; conditions: J774 macrophages, read-out: Ratio CC50/IC50
Leishmania donovani [7] = assay: Antileishmanial activity against Leishmania donovani promastigotes at 25 uM measured after 48 hrs by MTT assay relative to control; type: functional
[8] = Stability of the compound in stimulated gastric fluid at 10 ug/ml at pH 1.2 measured upto 120 min by HPLC analysis; type: ADME; conditions: simulated gastric fluid, at 10 µg/mL, read-out: Stability
[9] = Stability of the compound in Tris-buffer at 10 ug/ml at pH 7.4 measured upto 120 min by HPLC analysis; type: physicochemical; conditions: at 10 µg/mL, read-out: Stability
Leishmania donovani [10] = assay: Antileishmanial activity against amastigote form of Leishmania donovani infected in BALB/c mouse assessed as inhibition of parasite growth in spleen at 10 mg/kg, po measured after 1 week post treatment by geimsa staining based analysis relative to control; type: functional; design: scale not given: the % may be the effect or the level left; conditions: time 1 weeks
Leishmania donovani [11] = assay: Antileishmanial activity against amastigote form of Leishmania donovani infected in BALB/c mouse assessed as inhibition of parasite growth in spleen at 20 mg/kg, po measured after 1 week post treatment by geimsa staining based analysis relative to control; type: functional; design: scale not given: the % may be the effect or the level left; conditions: time 1 weeks
Leishmania donovani [12] = assay: Antileishmanial activity against amastigote form of Leishmania donovani infected in BALB/c mouse assessed as inhibition of parasite growth in liver at 40 mg/kg, po measured after 1 week post treatment by geimsa staining based analysis relative to control; type: functional; design: scale not given: the % may be the effect or the level left; conditions: time 1 weeks
Leishmania donovani [13] = assay: Antileishmanial activity against amastigote form of Leishmania donovani infected in BALB/c mouse assessed as inhibition of parasite growth in spleen at 40 mg/kg, po measured after 1 week post treatment by geimsa staining based analysis relative to control; type: functional; design: scale not given: the % may be the effect or the level left; conditions: time 1 weeks
Leishmania donovani [14] = assay: Antileishmanial activity against Leishmania donovani infected in golden hamster assessed as inhibition of parasite growth in liver at 40 mg/kg, po administered for 7 days and measured after 28 days by giemsa staining based analysis relative to control; type: functional; design: scale not given: the % may be the effect or the level left; conditions: time 28 day
Leishmania donovani [15] = assay: Antileishmanial activity against Leishmania donovani infected in golden hamster assessed as inhibition of parasite growth in spleen at 40 mg/kg, po administered for 7 days and measured after 28 days by giemsa staining based analysis relative to control; type: functional; design: scale not given: the % may be the effect or the level left; conditions: time 28 day
Leishmania donovani [16] = assay: Antileishmanial activity against Leishmania donovani infected in golden hamster assessed as inhibition of parasite growth in spleen at 80 mg/kg, po administered for 7 days and measured after 28 days by giemsa staining based analysis relative to control; type: functional; design: scale not given: the % may be the effect or the level left; conditions: time 28 day
[17] = Toxicity in golden hamster infected with Leishmania donovani assessed as reduction in serum AST level at 40 mg/kg ,po and measured after 28 days post infection (reference value: 82.72 IU/L); type: organism-based, Mesocricetus auratus; conditions: in vivo, 672 h, time 28 day
[18] = Renal toxicity in golden hamster assessed as effect on creatinine level at 40 mg/kg, po measured after 28 days post infection; type: organism-based, Mesocricetus auratus; conditions: in vivo, 672 h, time 28 day
[19] = Renal toxicity in golden hamster assessed as effect on urea level at 40 mg/kg, po measured after 28 days post infection; type: organism-based, Mesocricetus auratus; conditions: in vivo, 672 h, time 28 day
J774 [20] = assay: Immunostimulatory activity in mouse J774 macrophage infected with Leishmania donovani assessed as fold increase in IL-12 level at 25 uM measured after 24 hrs by RT-PCR analysis; type: functional
J774 [21] = assay: Downregulation of GSK-3beta phosphorylation in mouse J774 macrophage infected with Leishmania donovani at 25 uM measured after 8 to 12 hrs by immunoblot analysis; type: functional, cell-based; conditions: time 8-12 hrs
J774 [22] = assay: Downregulation of CREB phosphorylation level at Ser133 residue in mouse J774 macrophage infected with Leishmania donovani at 25 uM measured after 12 to 16 hrs by immunoblot analysis; type: functional, cell-based; conditions: time 12-16 hrs
J774 [23] = assay: Downregulation of CREB enrichment in mouse J774 macrophage infected with Leishmania donovani at 25 uM measured after 4 hrs by ChIP assay; type: functional, cell-based
Leishmania donovani [24] = assay: Antileishmanial activity against Leishmania donovani promastigotes assessed as decrease in intracellular proline level at 25 uM measured after 24 hrs (reference value: 6.27 mM); type: functional
Leishmania donovani [25] = assay: Induction of cell cycle arrest in Leishmania donovani promastigotes assessed as accumulation of cells at G1 phase at 25 uM measured after 4 hrs by PI staining based flow cytometry analysis (reference value: 35.7%); type: functional
Leishmania donovani [26] = assay: Induction of cell cycle arrest in Leishmania donovani promastigotes assessed as accumulation of cells at G1 phase at 25 uM measured after 8 hrs by PI staining based flow cytometry analysis (reference value: 35.7%); type: functional
Leishmania donovani [27] = assay: Induction of cell cycle arrest in Leishmania donovani promastigotes assessed as accumulation of cells at G1 phase at 25 uM measured after 12 hrs by PI staining based flow cytometry analysis (reference value: 35.7%); type: functional
Leishmania donovani [28] = assay: Induction of cell cycle arrest in Leishmania donovani promastigotes assessed as accumulation of cells at S phase at 25 uM measured after 4 hrs by PI staining based flow cytometry analysis (reference value: 28.6%); type: functional
Leishmania donovani [29] = assay: Induction of cell cycle arrest in Leishmania donovani promastigotes assessed as accumulation of cells at S phase at 25 uM measured after 12 hrs by PI staining based flow cytometry analysis (reference value: 28.6%); type: functional
Leishmania donovani [30] = assay: Induction of cell cycle arrest in Leishmania donovani promastigotes assessed as accumulation of cells at S phase at 25 uM measured after 24 hrs by PI staining based flow cytometry analysis (reference value: 28.6%); type: functional
Leishmania donovani [31] = assay: Induction of cell cycle arrest in Leishmania donovani promastigotes assessed as accumulation of cells at G2/M phase at 25 uM measured after 4 hrs by PI staining based flow cytometry analysis (reference value: 35.7%); type: functional
Leishmania donovani [32] = assay: Induction of cell cycle arrest in Leishmania donovani promastigotes assessed as accumulation of cells at G2/M phase at 25 uM measured after 24 hrs by PI staining based flow cytometry analysis (reference value: 35.7%); type: functional
Leishmania donovani [33] = assay: Antileishmanial activity against Leishmania donovani promastigotes at 25 uM measured after 12 hrs in presence of antipain by luciferase assay relative to control; type: functional
Leishmania donovani [34] = assay: Induction of autophagy in Leishmania donovani promastigotes assessed as fold induction of ATG5 gene at 25 uM measured after 24 hrs by RT-PCR analysis; type: functional
Leishmania donovani [35] = assay: Induction of autophagy in Leishmania donovani promastigotes assessed as fold induction of ATG8 gene at 25 uM measured after 24 hrs by RT-PCR analysis; type: functional
Leishmania donovani [36] = assay: Induction of apoptosis in Leishmania donovani promastigotes assessed as appearance of disorganised mitochondrial cristae at 25 uM by transmission electron microscopy analysis; type: functional, organism-based

Q: What does the source list for `Cn1c(-c2ccc(OCC(=O)Nc3ccccn3)cc2)nc2ccccc2c1=O`?
A: Activity (J774 [1]): 90.78%; Activity (J774 [2]): 52.15%; IC50 (Leishmania donovani [3]): 3.39 µM; IC50 (Leishmania donovani [4]): 3.55 µM; CC50 (J774 [5]): 65 µM; selectivity ratio [6]: 18.3; Activity (Leishmania donovani [7]): 85.64%; remaining at 2 h, 10 ug/ml [8]: 94.5%; remaining at 2 h, 10 ug/ml [9]: 95.5%; Activity (Leishmania donovani [10]): >50%; Activity (Leishmania donovani [11]): >50%; Activity (Leishmania donovani [12]): 85.4%; Activity (Leishmania donovani [13]): 86.3%; Activity (Leishmania donovani [14]): 66.7%; Activity (Leishmania donovani [15]): 68.4%; Activity (Leishmania donovani [16]): 85.8%; Activity [17]: 123.38 IU/L; Activity [18]: Non-Toxic; Activity [19]: Non-Toxic; fold change (FC) (J774 [20]): 3.4; Activity (J774 [21]): Active; Activity (J774 [22]): Active; Activity (J774 [23]): Active; Activity (Leishmania donovani [24]): 2.96 mM; Activity (Leishmania donovani [25]): 43.8%; Activity (Leishmania donovani [26]): 55.5%; Activity (Leishmania donovani [27]): 65.8%; Activity (Leishmania donovani [28]): 25.6%; Activity (Leishmania donovani [29]): 15.5%; Activity (Leishmania donovani [30]): 13.9%; Activity (Leishmania donovani [31]): 30.6%; Activity (Leishmania donovani [32]): 13.9%; Activity (Leishmania donovani [33]): 40.44%; fold change (FC) (Leishmania donovani [34]): 2.84; fold change (FC) (Leishmania donovani [35]): 8.92; Activity (Leishmania donovani [36]): Active
